These results are taken from patent US8969584B2, “PIM kinase inhibitors and preparation methods and use in medicinal manufacture thereof” (Jikai Biosciences, Inc., priority 2011, dated 2015).

The target in this test is T1, PIM-1 kinase (Homo sapiens, UniProt P11309).
T1 construct: purchased Millipore 14-573
Description: PIM Kinase Activity Assay-IMAP Fluorescence Polarization Assay (PIM-1). It counts as biochemical. The conditions noted are these: 3 μM concentration. How it is done: In the present invention, the PIM activities of the compounds were tested by BioDuro (Building E, No. 29 Life Science Park Road, Changping District, Beijing, 102206, P.R. China). The method used for testing is PIM Kinase Activity Assay-IMAP Fluorescence Polarization Assay PIM Kinase Activity Assay-IMAP Fluorescence Polarization Assay 1. Principle PIM kinases are serine/threonine protein kinases, and they can phosphorylate 5-FAM labeled small peptide substrates. Fluorescence polarization is less for non-phosphorylated substrates since that can not bind to the binder (metal binding nanoparticles). On the other hand, fluorescence polarization is more for phosphorylated substrates since that can bind to the binder. The level of 5-FAM labeled small peptide substrates phosphorylation reflects the activities of PIM kinase. By measuring their ability of inhibiting PIM kinase of the compounds of the present invention, their activities of inhibiting PIM kinases can be determined 2. Instrument EnVision (PerkinElmer, Waltham, Mass.) 3. Reagents and 384 well plates PIM1 (Millipore Cat. #14-573) (Millipore Corporation, Billerica, Mass.) PIM2 (Millipore Cat. #14-607) (Millipore Corporation, Billerica, Mass.) 5-FAM labeled peptide (5-FAM-RSRHSSYPAGT, AnaSpec Cat. #63801) (AnaSpec Inc., Fremont, Calif.) IMAP FP Screening Express kit (IMAP FP Screening kit) (Molecular Devices Cat. #R8127) (Molecular Devices, Sunnyvale, Calif.) IMAP Progressive binding reagent IMAP Progressive binding buffer A (5×) IMAP Progressive binding buffer B (5×) 384-well black plate (Corning Cat. #3573) (Corning, Midland Mich.) 4. Assay Buffer
a) 10 mM compound stock solution is diluted to appropriate concentration with 100% DMSO, then diluted 10 fold to targeted concentration with test butter to keep DMSO concentration at 10%
1 ul of compound solution and 4 ul of enzyme (PIM-1 final concentration 0.025 nM, PIM-2 concentration 3 nM) is incubated at 23° C. for 15 min, 2.5 ul ATP (for PIM-1 and PIM-2, the final ATP concentrations are 30 uM and 5 uM respectively) 2.5 ul 5-FAM labeled peptide (final concentration 100 nM) was added to start the reaction. The reaction is run at 23° C. for 60 min DMSO is used in place of compound stock solution as maximum reference and assay buffer is used in place of enzyme as minimum reference. c) add 30 ul IMAP binding reagent (containing 75% IMAP Buffer A, 25% IMAP Buffer B, 1/600 dilution of beads) to stop the reaction, incubated at room temperature for 60 min d) Measure fluorescence polarization, excitation wavelength: 485 nm, emission wavelength 530 nm. 6. Data process IC50 values were calculated using Graphpad Prism®.

T1 sequence (P11309 whole entry): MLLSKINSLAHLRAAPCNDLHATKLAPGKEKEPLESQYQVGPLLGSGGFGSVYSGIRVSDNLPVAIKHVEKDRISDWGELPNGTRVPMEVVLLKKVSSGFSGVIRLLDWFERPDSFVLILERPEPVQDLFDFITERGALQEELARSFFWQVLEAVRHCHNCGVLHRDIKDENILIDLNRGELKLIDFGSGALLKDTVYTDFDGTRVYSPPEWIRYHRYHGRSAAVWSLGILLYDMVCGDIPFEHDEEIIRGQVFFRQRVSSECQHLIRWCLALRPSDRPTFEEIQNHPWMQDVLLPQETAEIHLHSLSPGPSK

Usually inhibition stands for how much of the control response was suppressed. The compound `CC(=O)Nc1nc(C(=O)Nc2cnsc2N2CCNCC2)cs1` [Compound 39, 2-acetamido-N-(5-(piperazin-1-yl)isothiazol-4-yl)thiazole-4-carboxamide] had an inhibition at 3 µM of 20 to 50%.

`O=C(Nc1cnsc1N1CCNCC1)c1csc(C2COc3ccccc3O2)n1` (stereo not shown) [Compound 40, 2-(2,3-dihydrobenzo[b][1,4]dioxin-2-yl)-N-(5-(piperazin-1-yl)isothiazol-4-yl)thiazole-4-carboxamide] showed an inhibition at 3 µM of 20 to 50%.

As for `CC(C)(C)OC(=O)N1CCC(c2nc(C(=O)Nc3cnsc3N3CCOCC3)cs2)CC1` [Compound 25, tert-butyl 4-(4-((5-morpholinoisothiazol-4-yl)carbamoyl)thiazol-2-yl)piperidine-1-carboxylate], the inhibition at 3 µM lay within 20 to 50%.

Compound `O=C(Nc1cnsc1N1CCOCC1)c1csc(C2COc3ccccc3O2)n1` (stereo not shown) [Compound 28, 2-(2,3-dihydrobenzo[b][1,4]dioxin-2-yl)-N-(5-morpholinoisothiazol-4-yl)thiazole-4-carboxamide] returned an inhibition at 3 µM of 20 to 50%.

For `O=C(Nc1cnsc1N1CCNCC1)c1cc(-c2ccccc2F)n[nH]1` [Compound 42, 3-(2-fluorophenyl)-N-(5-(piperazin-1-yl)isothiazol-4-yl)-1H-pyrazole-5-carboxamide], the inhibition at 3 µM is 20 to 50%.

`O=C(Nc1cnsc1N1CCNCC1)c1coc(-c2ccccc2)n1` [Compound 43, 2-phenyl-N-(5-(piperazin-1-yl)isothiazol-4-yl)oxazole-4-carboxamide] gave an inhibition at 3 µM of 20 to 50%.

The compound `O=C(Nc1cnsc1N1CCc2c(O)cccc2C1)c1cccc(-c2c(F)cccc2F)n1` [Compound 52, 6-(2,6-difluorophenyl)-N-(5-(5-hydroxy-3,4-dihydroisoquinolin-2(1H)-yl)isothiazol-4-yl)picolinamide] came in with an inhibition at 3 µM of 20 to 50%.

Compound `O=C(Nc1cnsc1N1CCNCC1)c1csc(N2CCOCC2)n1` [Compound 36, 2-morpholino-N-(5-(piperazin-1-yl)isothiazol-4-yl)thiazole-4-carboxamide] came in with an inhibition at 3 µM of 20 to 50%.

`O=C(Nc1cnsc1N1CCOCC1)c1csc(C2CCNCC2)n1` [Compound 26, N-(5-morpholinoisothiazol-4-yl)-2-(piperidin-4-yl)thiazole-4-carboxamide] had an inhibition at 3 µM of 20 to 50%.

As to `Cc1cc(C(=O)Nc2cnsc2N2CCNCC2)nn1-c1ccccc1F` [Compound 41, 1-(2-fluorophenyl)-5-methyl-N-(5-(piperazin-1-yl)isothiazol-4-yl)-1H-pyrazole-3-carboxamide], the inhibition at 3 µM lay in the range of 20 to 50%.
